The source made the active and inactive calls. The calls are words filed in the database; no cut-off is given here.
Assays:
[1] = Toxicity in […] assessed as rat death administered as single dose at 500 mg/kg, ip; assay type: organism-based; conditions: in vivo
[2] = Toxicity in […] assessed as morphological changes in ileum at 500 mg/kg, ip by H&E staining based histopathological analysis; assay type: organism-based; conditions: in vivo
[3] = biological target: T1, Poly [ADP-ribose] polymerase tankyrase-1 (Homo sapiens) (UniProt O95271); conditions: dose 10.0 nM, time 1.0 hrs
T1 sequence (whole entry): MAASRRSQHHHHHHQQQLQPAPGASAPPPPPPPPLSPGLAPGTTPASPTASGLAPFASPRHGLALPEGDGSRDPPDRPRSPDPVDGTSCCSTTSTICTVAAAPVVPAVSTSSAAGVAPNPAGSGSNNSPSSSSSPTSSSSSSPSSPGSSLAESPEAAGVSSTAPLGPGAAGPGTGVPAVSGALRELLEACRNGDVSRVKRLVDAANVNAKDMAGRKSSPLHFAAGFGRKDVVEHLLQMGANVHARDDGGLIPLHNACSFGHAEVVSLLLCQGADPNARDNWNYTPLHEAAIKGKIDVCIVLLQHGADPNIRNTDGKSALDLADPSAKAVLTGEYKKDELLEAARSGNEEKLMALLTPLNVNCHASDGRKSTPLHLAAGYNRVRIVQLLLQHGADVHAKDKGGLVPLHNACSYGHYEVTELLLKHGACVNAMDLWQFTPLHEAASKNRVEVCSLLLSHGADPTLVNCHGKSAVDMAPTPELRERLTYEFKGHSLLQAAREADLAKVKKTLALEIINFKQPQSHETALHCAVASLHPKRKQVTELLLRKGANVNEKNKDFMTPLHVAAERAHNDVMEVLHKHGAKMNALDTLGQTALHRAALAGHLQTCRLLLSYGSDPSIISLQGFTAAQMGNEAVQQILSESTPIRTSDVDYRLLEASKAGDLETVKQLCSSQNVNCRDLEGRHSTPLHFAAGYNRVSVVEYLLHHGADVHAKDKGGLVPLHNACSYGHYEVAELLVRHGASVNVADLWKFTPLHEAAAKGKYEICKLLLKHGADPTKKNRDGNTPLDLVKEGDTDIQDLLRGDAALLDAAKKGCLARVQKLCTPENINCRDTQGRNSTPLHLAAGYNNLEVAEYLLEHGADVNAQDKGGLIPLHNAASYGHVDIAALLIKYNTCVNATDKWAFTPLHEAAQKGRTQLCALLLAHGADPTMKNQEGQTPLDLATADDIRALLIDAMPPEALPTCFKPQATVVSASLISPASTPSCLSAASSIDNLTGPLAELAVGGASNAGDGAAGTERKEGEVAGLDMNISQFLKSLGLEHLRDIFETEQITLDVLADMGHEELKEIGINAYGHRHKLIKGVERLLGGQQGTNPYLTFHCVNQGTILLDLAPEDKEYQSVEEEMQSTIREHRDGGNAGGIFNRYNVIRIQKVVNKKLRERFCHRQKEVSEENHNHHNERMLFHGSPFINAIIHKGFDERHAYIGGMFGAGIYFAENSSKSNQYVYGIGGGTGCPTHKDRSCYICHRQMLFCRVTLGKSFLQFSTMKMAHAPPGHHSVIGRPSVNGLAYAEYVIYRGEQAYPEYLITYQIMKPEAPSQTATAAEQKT

HCT-116 [4] = experiment: Inhibition of PARP in human HCT-116 cells assessed as decrease in pADPr levels at 10 uM by Western blot analysis; assay type: cell-based
[5] = Half-life in Sprague-Dawley rat at 10 mg/kg, po or 1 mg/kg, iv; assay type: ADME, organism-based; conditions: in vivo
HCT-116 [6] = experiment: Induction of cell cycle arrest in human HCT-116 cells assessed as S phase cells at 1 uM incubated for 3 days by propidium iodide staining based flow cytometry (reference value: 11.26 %); assay type: functional; conditions: time 3 day
HCT-116 [7] = experiment: Induction of cell cycle arrest in human HCT-116 cells assessed as G0/G1 phase cells at 1 uM incubated for 3 days by propidium iodide staining based flow cytometry (reference value: 68.35 %); assay type: functional; conditions: time 3 day
[8] = Toxicity in […] assessed as morphological changes in duodenum at 500 mg/kg, ip by H&E staining based histopathological analysis; assay type: organism-based; conditions: in vivo
HCT-116 [9] = experiment: Inhibition of Wnt/beta-Catenin signaling in human HCT-116 cells assessed as decrease in total beta-catenin levels at 10 uM by Western blot analysis; assay type: cell-based
HCT-116 [10] = experiment: Induction of DNA damage in human HCT-116 cells assessed as increase in nuclear gammaH2AX foci incubated for 72 hrs by DAPI staining based immunofluorescence analysis; assay type: functional, cell-based; conditions: dose 1.0 µM
HCT-116 [11] = experiment: Induction of apoptosis in human HCT-116 cells assessed as necrotic cells at 1 uM incubated for 3 days by annexinV-FITC/propidium iodide staining based flow cytometry (reference value: 3.65 %); assay type: functional; conditions: time 3 day
HCT-116 [12] = experiment: Induction of cell cycle arrest in human HCT-116 cells assessed as S phase cells at 5 uM incubated for 3 days by propidium iodide staining based flow cytometry (reference value: 11.26 %); assay type: functional; conditions: time 3 day
[13] = Toxicity in […] assessed as morphological changes in jejunum at 500 mg/kg, ip by H&E staining based histopathological analysis; assay type: organism-based; conditions: in vivo
HCT-116 [14] = experiment: Downregulation of BRCA1 protein expression in human HCT-116 cells at 1 uM by Western blot analysis; assay type: functional, cell-based
HCT-116 [15] = experiment: Induction of apoptosis in human HCT-116 cells assessed as viable cells at 5 uM incubated for 3 days by annexinV-FITC/propidium iodide staining based flow cytometry (reference value: 60.0 %); assay type: functional; conditions: Homo sapiens, HCT-116, 72 h, time 3 day, read-out: Activity
HCT-116 [16] = experiment: Induction of apoptosis in human HCT-116 cells assessed as late apoptotic cells at 1 uM incubated for 3 days by annexinV-FITC/propidium iodide staining based flow cytometry (reference value: 8.71 %); assay type: functional; conditions: time 3 day
HCT-116 [17] = experiment: Induction of cell cycle arrest in human HCT-116 cells assessed as G2/M phase cells at 5 uM incubated for 3 days by propidium iodide staining based flow cytometry (reference value: 68.35 %); assay type: functional; conditions: time 3 day
[18] = Toxicity in BALB/c nude mouse xenografted with human HCT116 cells assessed as side effects at 25 to 100 mg/kg, ip administered once daily for 28 days; assay type: organism-based, HCT-116; conditions: in vivo, 672 h, dose 25-100 mg/kg, time 28 day

With `COc1ccc(NC(=O)c2ccc(NC(=O)N3CCN(C(=O)c4cc(Cc5n[nH]c(=O)c6ccccc56)ccc4F)CC3)cc2)cc1` the Activity [1] was “Non-Toxic”, the Activity [2] was “Non-Toxic” and the inhibition [3] was 28%. For the same molecule, the inhibition (HCT-116 [4]) was “Active”, the half-life [5] was 1.73 h and the Activity (HCT-116 [6]) was 9.31%. For the same molecule, the Activity (HCT-116 [7]) was 59.2%, the Activity [8] was “Non-Toxic” and the inhibition (HCT-116 [9]) was “Active”. For the same molecule, the Activity (HCT-116 [10]) was “Active”, the Activity (HCT-116 [11]) was 4.57% and the Activity (HCT-116 [12]) was 4.19%. The Activity [13] was “Non-Toxic”, the Activity (HCT-116 [14]) was “Active” and the viability at 5 µM (HCT-116 [15]) was 45.1%. For the same molecule, the Activity (HCT-116 [16]) was 15.3%, the Activity (HCT-116 [17]) was 54.6% and the Activity [18] was “Non-Toxic”.
